Data as given in publication PMC11257449 (bioRxiv, 2024).

Target: AmpC β-lactamase (Escherichia coli, UniProt P00811)
Format: biochemical
Conditions: for Km: AmpC substrate

Chain of AmpC β-lactamase (P00811 20-377): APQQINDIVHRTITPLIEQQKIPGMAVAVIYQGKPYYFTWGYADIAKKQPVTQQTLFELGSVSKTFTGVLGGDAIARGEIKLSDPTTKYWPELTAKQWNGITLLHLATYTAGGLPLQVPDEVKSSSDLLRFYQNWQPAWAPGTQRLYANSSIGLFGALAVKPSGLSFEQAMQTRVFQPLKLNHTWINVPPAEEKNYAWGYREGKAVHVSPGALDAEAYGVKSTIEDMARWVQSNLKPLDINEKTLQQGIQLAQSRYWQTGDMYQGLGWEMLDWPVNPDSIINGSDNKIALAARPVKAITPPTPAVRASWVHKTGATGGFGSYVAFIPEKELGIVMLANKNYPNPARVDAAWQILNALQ

O=S(=O)(Nc1ccc(F)c2cnccc12)c1cc(Cl)cc(Cl)c1O [Z6615020275]
Ki (Fig. 1 legend, crystallised inhibitors): 2000 nM

O=C(Cc1cccs1)N[C@@H]1C(=O)N2C(C(=O)O)=C(/C=C/c3ccc([N+](=O)[O-])cc3[N+](=O)[O-])CS[C@H]12 [nitrocefin]
Km: 180 µM

O=C(Cc1cccs1)N[C@@H]1C(=O)N2C(C(=O)O)=C(CSc3ccc([N+](=O)[O-])c(C(=O)O)c3)CS[C@H]12 [CENTA]
Km: 27.6 µM
